Experimental data taken from US9511134B2, “Inducing immune responses to influenza virus using polypeptide and nucleic acid compositions” (priority 2006, dated 2016).
Values joined by “and” are separate entries in the source; they are usually repeats but may differ in a detail not shown here. Equal values may be shown once. Read-outs that look alike come from different tables or passages of the source.

How the values were obtained:
[1] = target: DRB1*1101 (Homo sapiens, UniProt P01903+P01911, A100R/A169T/A87E/I96F/K41T/L162R/M171V/P40S/Q125H/Q178H/Q39Y/Q99D/R42S/S66Y/T262R/V115G/W38E); assay: biochemical; format: binding; conditions: read-out: IC50 nM to purified HLA DRB1*1101
DRB1*1101, sequence (P01903 26-254 limits assumed, other chains not shown): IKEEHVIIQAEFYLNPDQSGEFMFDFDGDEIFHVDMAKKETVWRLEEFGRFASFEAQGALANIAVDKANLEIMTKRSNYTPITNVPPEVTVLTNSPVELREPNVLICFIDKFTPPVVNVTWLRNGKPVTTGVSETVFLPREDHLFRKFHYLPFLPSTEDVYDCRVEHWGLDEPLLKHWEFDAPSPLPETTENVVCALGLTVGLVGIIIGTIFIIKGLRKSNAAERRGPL

[2] = target: T1, DRB1*0401 (Homo sapiens, UniProt P01903+P01911, A100K/A169T/F76Y/I96L/K127E/L162R/M171V/N62H/P40V/Q125Y/R42H/S133A/S149N/S66Y/V115G/V209L/W38E); assay: biochemical; format: binding; conditions: read-out: IC50 nM to purified HLA DRB1*0401
T1 construct: made in house; host or cells: EBV-transformed homozygous human B cell lines, transfected fibroblasts or single-allele 721.221 transfectants

[3] = target: DRB1*0405 (Homo sapiens, UniProt P01903+P01911, A100R/A169T/D86S/F76Y/I96L/K127E/L162R/M171V/N62H/P40V/Q125Y/R42H/S133A/S149N/S66Y/V115G/V209L/W38E); assay: biochemical; format: binding; conditions: read-out: IC50 nM to purified HLA DRB1*0405
[4] = target: T2, DRB1*0101 (Homo sapiens, UniProt P01903+P01911, A100R/D57E/F55L/F60I/F76Y/I96L/L162R/M171V/P40L/Q125E/R42F/V115G/Y59C); assay: biochemical; format: binding
T2 construct: made in house; host or cells: EBV-transformed homozygous human B cell lines, transfected fibroblasts or single-allele 721.221 transfectants

[5] = target: DRB1*0701 (Homo sapiens, UniProt P01903+P01911, A100R/A102G/A103Q/D57E/D86V/E43K/F76Y/K127E/L162R/M171V/P40G/Q125H/Q99D/R33Q/R42Y/R54Q/S133A/S66F/T210M/V115G/Y107V/Y59L/Y89S); assay: biochemical; format: binding
[6] = target: T3, DRB1*1501 (Homo sapiens, UniProt P01903+P01911); assay: biochemical; format: binding; conditions: read-out: IC50 nM to purified HLA DRB1*1501
T3 construct: made in house; host or cells: EBV-transformed homozygous human B cell lines, transfected fibroblasts or single-allele 721.221 transfectants

[7] = target: DRB1*0404 (Homo sapiens, UniProt P01903+P01911, A100R/A169T/F76Y/I96L/K127E/L162R/M171V/N62H/P40V/Q125Y/R42H/S133A/S149N/S66Y/V209L/W38E); assay: biochemical; format: binding
[8] = target: DRB1*1302 (Homo sapiens, UniProt P01903+P01911, A100E/A169T/K41T/L162R/M171V/P40S/Q125H/Q178H/Q39Y/Q99D/R42S/S66N/T262R/V115G/W38E/Y61H); assay: biochemical; format: binding; conditions: read-out: IC50 nM to purified HLA DRB1*1302
DRB1*1302, sequence (P01903 26-254 limits assumed, other chains not shown): as above

[9] = target: DRB1*0802 (Homo sapiens, UniProt P01903+P01911, A100R/A103L/A169T/F76Y/H45Y/I96F/K41T/L162R/M171V/P40S/Q125H/Q178H/Q39Y/Q99D/R218S/R42G/S66Y/V115G/W38E); assay: biochemical; format: binding
[10] = target: T4, DRB4*0101 (Homo sapiens, UniProt P01903+P13762, G164S); assay: biochemical; format: binding; conditions: IC50 nM to purified HLA DRB4*0101
T4 construct: made in house; host or cells: EBV-transformed homozygous human B cell lines, transfected fibroblasts or single-allele 721.221 transfectants

[11] = test system: CD4+ PBMC; format: cell-based, human; conditions: IFNγ ELISPOT, PBMC rested five days, CD8-depleted
[12] = target: T5, DRB5*0101 (Homo sapiens, UniProt P01903+Q30154); assay: biochemical; format: binding
T5 construct: made in house; host or cells: EBV-transformed homozygous human B cell lines, transfected fibroblasts or single-allele 721.221 transfectants

[13] = target: T6, DRB1*0301 (Homo sapiens, UniProt P01903+P01911, A100K/A102G/A103R/A169T/F55Y/I96L/K41T/L162R/M171V/P40S/Q125H/Q178H/Q39Y/R42S/S66N/T106N/T262R/W38E/Y61H); assay: biochemical; format: binding
T6 construct: made in house; host or cells: EBV-transformed homozygous human B cell lines, transfected fibroblasts or single-allele 721.221 transfectants
T6 sequence (P01903 26-254, other chains not shown): as the sequence (P01903 26-254 limits assumed, other chains not shown) above

[14] = target: DRB1*0901 (Homo sapiens, UniProt P01903+P01911, A100R/A103E/D57H/D86V/F55Y/F60I/F76Y/I96F/K127E/L162R/M171V/P40D/Q125H/Q99R/R33Q/R42F/S133A/S66N/T210M/V115G/W38K/Y107V/Y59G/Y89S); assay: biochemical; format: binding; conditions: read-out: IC50 nM to purified HLA DRB1*0901
[15] = read-out: IC50 nM to purified HLA DRB1*0101
[16] = read-out: IC50 nM to purified HLA DRB1*0404
[17] = IC50 nM to purified HLA DRB1*0101
[18] = IC50 nM to purified HLA DRB1*0101, Table 4
[19] = IC50 nM to purified HLA DRB1*0404

Row | Structure (SMILES) | IC50 [1] [nM] | IC50 [2] | IC50 [3] [nM] | IC50 [6] | IC50 [8] [nM] | IC50 [9] [nM] | IC50 [10] [nM] | IC50 [4, 17] | IC50 [12] [nM] | IC50 [13] [nM] | IC50 [5] [nM] | IC50 [7, 19] [nM] | also measured
1 | CC[C@H](C)[C@H](NC(=O)CNC(=O)[C@@H](NC(=O)[C@@H](NC(=O)[C@H](CO)NC(=O)[C@H](C)NC(=O)[C@H](C)NC(=O)[C@@H](NC(=O)[C@@H](NC(=O)[C@H](CC(C)C)NC(=O)[C@@H]1CCCN1C(=O)[C@@H](N)CC(=O)O)C(C)C)C(C)C)[C@@H](C)CC)[C@@H](C)CC)C(=O)N[C@@H](CC(C)C)C(=O)N[C@@H](Cc1c[nH]cn1)C(=O)N[C@@H](CC(C)C)C(=O)O [Flu.M2.27] | 1800 | 92 nM | 630 | 2200 nM |  |  |  |  |  |  |  |  | IC50 [4, 15]: 78 nM; IC50 ([5]; read-out: IC50 nM to purified HLA DRB1*0701): 1300 nM; IC50 [7, 16]: 23 nM
2 | CC[C@H](C)[C@H](N)C(=O)NCC(=O)N[C@@H](CCCNC(=N)N)C(=O)N[C@@H](Cc1ccccc1)C(=O)N[C@@H](Cc1ccc(O)cc1)C(=O)N[C@H](C(=O)N[C@@H](CCC(N)=O)C(=O)N[C@@H](CCSC)C(=O)N[C@@H](CS)C(=O)N[C@H](C(=O)N[C@@H](CCC(=O)O)C(=O)N[C@@H](CC(C)C)C(=O)N[C@@H](CCCCN)C(=O)N[C@@H](CC(C)C)C(=O)N[C@@H](CO)C(=O)O)[C@@H](C)O)[C@@H](C)CC [Flu.NP.39] | 880 |  |  |  | 640 | 130 | 990 | 64 nM and 43 nM | 78 |  |  |  | IC50 [4, 18]: 64 nM; Human influenza epitope-specific immune response, donor 3501 [11]: Positive (Donors were considered positive for a peptide if the number of spots was over 3 times background as determined by responses to irrelevant peptides (non influenza))
3 | CC[C@H](C)[C@H](NC(=O)[C@H](CC(=O)O)NC(=O)[C@H](CCCCN)NC(=O)[C@H](CC(=O)O)NC(=O)[C@H](CCSC)NC(=O)[C@@H](NC(=O)[C@H](C)NC(=O)[C@H](CCC(N)=O)NC(=O)[C@H](CC(=O)O)NC(=O)[C@H](CCSC)NC(=O)[C@H](CCCNC(=N)N)NC(=O)[C@@H](NC(=O)[C@H](CS)NC(=O)[C@H](CC(C)C)NC(=O)[C@@H](N)CO)[C@@H](C)CC)[C@@H](C)CC)C(=O)O [Flu.NS1.117] | > 10000 |  | 82 |  | 53 |  |  |  |  | 58 |  |  | IC50 [14]: 6900 nM
4 | CC[C@H](C)[C@H](NC(=O)[C@H](CCC(=O)O)NC(=O)CNC(=O)[C@@H](N)C(C)C)C(=O)N[C@@H](CO)C(=O)N1CCC[C@H]1C(=O)N[C@@H](CC(C)C)C(=O)N1CCC[C@H]1C(=O)N[C@@H](CO)C(=O)N[C@@H](CC(C)C)C(=O)N1CCC[C@H]1C(=O)NCC(=O)N[C@@H](Cc1c[nH]cn1)C(=O)N[C@H](C(=O)N[C@@H](CC(=O)O)C(=O)O)[C@@H](C)O [Flu.NS1.160] | 90 | 31 nM and 16 nM |  | 38 nM and 28 nM | > 10000 |  |  | 14 nM and 12 nM |  | > 10000 | > 10000 | 8.5 | IC50 ([2]; Table 4): 31 nM; IC50 [4, 18]: 14 nM; IC50 ([6]; Table 4): 38 nM
5 | CC[C@H](C)[C@H](NC(=O)[C@H](CCC(N)=O)NC(=O)[C@H](CCC(=O)O)NC(=O)[C@@H](N)Cc1ccccc1)C(=O)N[C@H](C(=O)N[C@@H](Cc1ccccc1)C(=O)N[C@@H](CCSC)C(=O)N[C@@H](CCC(N)=O)C(=O)N[C@@H](C)C(=O)N[C@@H](CC(C)C)C(=O)N[C@@H](CCC(N)=O)C(=O)N[C@@H](CC(C)C)C(=O)N[C@@H](CC(C)C)C(=O)N[C@@H](CC(C)C)C(=O)N[C@@H](CCC(=O)O)C(=O)O)[C@@H](C)O [Flu.NS2.170] |  |  |  | 7 nM and 9.7 nM | 1080 |  |  |  |  |  |  |  | IC50 ([9]; read-out: IC50 nM to purified HLA DRB1*0802): 2700 nM; IC50 [4, 15]: 5.3 nM; IC50 ([4]; read-out: IC50 nM to purified HLA DRB1*0101, Table 4): 5.3 nM; IC50 [14]: 47 nM; IC50 ([6]; Table 4): 7 nM; IC50 [7, 16]: 160 nM
6 | CC[C@H](C)[C@H](NC(=O)[C@@H](NC(=O)[C@H](CCCNC(=N)N)NC(=O)[C@H](CCC(N)=O)NC(=O)[C@@H](NC(=O)[C@@H](NC(=O)[C@H](CCSC)NC(=O)[C@H](CCCCN)NC(=O)[C@H](CCCCN)NC(=O)[C@@H](N)[C@@H](C)O)C(C)C)[C@@H](C)O)[C@@H](C)O)C(=O)NCC(=O)N[C@@H](CCCCN)C(=O)N[C@@H](CCCCN)C(=O)N[C@@H](CCCCN)C(=O)N[C@@H](CCC(N)=O)C(=O)O [Flu.PB1.199] | 449 | 71 nM |  | 9710 nM | 6120 | 55 | 57 |  | 4.1 |  | 14100 | 62 | 
7 | CSCC[C@H](NC(=O)[C@H](CO)NC(=O)[C@H](CCCCN)NC(=O)[C@H](C)N)C(=O)N[C@@H](CCC(=O)O)C(=O)N[C@@H](Cc1ccc(O)cc1)C(=O)N[C@@H](CC(=O)O)C(=O)N[C@@H](C)C(=O)N[C@H](C(=O)N[C@@H](C)C(=O)N[C@H](C(=O)N[C@H](C(=O)N[C@@H](Cc1c[nH]cn1)C(=O)N[C@@H](CO)C(=O)N[C@@H](Cc1c[nH]c2ccccc12)C(=O)O)[C@@H](C)O)[C@@H](C)O)C(C)C [Flu.PB1.655] | 6620 | 53 nM | 626 | 1990 nM | 2180 |  | 6340 | 202 nM | 3530 | 909 | 292 | 646 | 
8 | CSCC[C@H](NC(=O)[C@@H](NC(=O)[C@H](CCCNC(=N)N)NC(=O)[C@@H](N)CC(=O)O)C(C)C)C(=O)N[C@H](C(=O)N[C@@H](CO)C(=O)N1CCC[C@H]1C(=O)N[C@@H](CC(C)C)C(=O)N[C@@H](C)C(=O)N[C@H](C(=O)N[C@H](C(=O)N[C@@H](Cc1c[nH]c2ccccc12)C(=O)N[C@@H](Cc1c[nH]c2ccccc12)C(=O)N[C@@H](CC(N)=O)C(=O)N[C@@H](CCCNC(=N)N)C(=O)O)[C@@H](C)O)C(C)C)C(C)C [Flu.PB2.90] |  |  | 16000 |  |  | 3550 |  | 93 nM |  |  |  |  | 
9 | CC[C@H](C)[C@H](NC(=O)[C@H](CC(C)C)NC(=O)[C@H](Cc1ccccc1)NC(=O)CNC(=O)[C@H](CCCNC(=N)N)NC(=O)[C@H](CC(C)C)NC(=O)[C@@H](NC(=O)[C@H](C)NC(=O)[C@H](CO)NC(=O)[C@@H](N)CCC(=O)O)C(C)C)C(=O)N[C@@H](CC(C)C)C(=O)NCC(=O)N[C@@H](CCCCN)C(=O)N[C@@H](CCC(=O)O)C(=O)N[C@@H](CC(=O)O)C(=O)O [Flu.PB2.690] |  |  | 7100 | 39 nM |  | 803 | 1280 | 8.4 nM | 303 |  | 2470 | 110 | 
10 | CC[C@H](C)[C@H](NC(=O)[C@H](CC(C)C)NC(=O)[C@@H](NC(=O)[C@@H](N)CC(N)=O)C(C)C)C(=O)NCC(=O)N[C@@H](CCC(N)=O)C(=O)NCC(=O)N[C@@H](CC(=O)O)C(=O)N[C@H](C(=O)N[C@H](C(=O)N[C@@H](CC(C)C)C(=O)N[C@H](C(=O)N[C@@H](CCSC)C(=O)N[C@@H](CCCCN)C(=O)N[C@@H](CCCNC(=N)N)C(=O)O)C(C)C)C(C)C)C(C)C [Flu.PB2.726] |  |  |  |  |  | 1080 |  |  | 4200 |  |  |  | 
